Experimental data taken from the NIST ThermoML archive (doi:10.1016/j.jct.2007.05.011).
Numbers after ± are expanded uncertainties.

Legend:
[1] = 101 kPa, Liquid; for mass density: Vibrating tube method
[2] = xn = mol fraction of the nth substance listed; details: 101 kPa, Liquid, x1 = 1; for mass density: Vibrating tube method

CCO [ethanol]
[1]
Details	mass density [kg/m3]	speed of sound [m/s]
288.15 K	794.444 ± 30	1178.2 ± 6.3
290.65 K	792.305 ± 30	1169.1 ± 6.3
293.15 K	790.158 ± 30	1160.3 ± 6.3
295.65 K	788.027 ± 30	1151.7 ± 6.2
298.15 K	785.89 ± 30	1143.1 ± 6.2
300.65 K	783.729 ± 30	1134.6 ± 6.2
303.15 K	781.591 ± 30	1126.2 ± 6.1
305.65 K	779.402 ± 30	1117.8 ± 6.1
308.15 K	777.238 ± 30	1109.4 ± 6.1
310.65 K	775.055 ± 30	1101 ± 6
313.15 K	772.846 ± 30	1092.7 ± 6
315.65 K	770.625 ± 30	1084.3 ± 6
318.15 K	768.482 ± 30	1075.9 ± 5.9
320.65 K	766.198 ± 30	1067.5 ± 5.9
323.15 K	764.019 ± 30	1058.8 ± 5.9

CCO [ethanol] + NCCO.O=CO
[2]
Details	mass density [kg/m3]	speed of sound [m/s]
288.15 K	794.444 ± 30	1178.2 ± 6.3
290.65 K	792.305 ± 30	1169.1 ± 6.3
293.15 K	790.158 ± 30	1160.3 ± 6.3
295.65 K	788.027 ± 30	1151.7 ± 6.2
298.15 K	785.89 ± 30	1143.1 ± 6.2
300.65 K	783.729 ± 30	1134.6 ± 6.2
303.15 K	781.591 ± 30	1126.2 ± 6.1
305.65 K	779.402 ± 30	1117.8 ± 6.1
308.15 K	777.238 ± 30	1109.4 ± 6.1
310.65 K	775.055 ± 30	1101 ± 6
313.15 K	772.846 ± 30	1092.7 ± 6
315.65 K	770.625 ± 30	1084.3 ± 6
318.15 K	768.482 ± 30	1075.9 ± 5.9
320.65 K	766.198 ± 30	1067.5 ± 5.9
323.15 K	764.019 ± 30	1058.8 ± 5.9

NCCO.O=CO [2-hydroxyethylammonium formate]
[1]
Details	mass density [kg/m3]	speed of sound [m/s]
288.15 K	1183.57 ± 31	1733.9 ± 9.9
290.65 K	1181.81 ± 31	1727.4 ± 9.9
293.15 K	1180.04 ± 31	1721.3 ± 9.8
295.65 K	1178.27 ± 31	1715.1 ± 9.8
298.15 K	1176.49 ± 31	1709 ± 9.8
300.65 K	1174.71 ± 31	1702.9 ± 9.8
303.15 K	1172.94 ± 31	1696.8 ± 9.8
305.65 K	1171.16 ± 31	1690.8 ± 9.8
308.15 K	1169.39 ± 31	1684.8 ± 9.7
310.65 K	1167.62 ± 31	1678.7 ± 9.7
313.15 K	1165.84 ± 31	1672.7 ± 9.7
315.65 K	1164.06 ± 31	1666.7 ± 9.7
318.15 K	1162.29 ± 31	1660.8 ± 9.6
320.65 K	1160.51 ± 31	1654.8 ± 9.6
323.15 K	1158.73 ± 31	1648.9 ± 9.6
